Values of other authors, collected in patent publication US20080004343A1, “Stable polymorphs of (E)-N,N-diethyl-2-cyano-3-(3,4-dihydroxy-5-nitrophenyl)acrylamide” (Wockhardt Limited, priority 2006, published 2008).

stability under the influence of heat or acids	SMILES	isomerization to polymorphic form A on standing (standing at room temperature)
unstable	CCN(CC)C(=O)C(C#N)=Cc1cc(O)c(O)c([N+](=O)[O-])c1 [(Z)-isomer, N,N-diethyl-2-cyano-3-(3,4-dihydroxy-5-nitrophenyl)acrylamide]	–
unstable	CCN(CC)C(=O)/C(C#N)=C/c1cc(O)c(O)c([N+](=O)[O-])c1 [polymorphic form B, (E)-N,N-diethyl-2-cyano-3-(3,4-dihydroxy-5-nitrophenyl)acrylamide]	isomerizes slowly to the polymorphic form A
